Results: ChEMBL document CHEMBL1201862, “PubChem BioAssay data set” (2004)
The source made the active and inactive calls.

Key:
[1] = microbe, parasite or virus in culture; assay type: functional; conditions: Mycobacterium tuberculosis
[2] = cytotoxicity in HPDE-C7 cells, cell-based, fluorescence, HTS (AID 430); assay type: functional; conditions: Homo sapiens
[3] = cytotoxicity in KRAS-transformed pancreatic duct cells, primary screen, cell-based, fluorescence, HTS (AID 431); assay type: functional; conditions: Homo sapiens;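 further: cell line used: HPDE-C7K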
[4] = growth suppression of beta-catenin-knockout colon cells, dose response, cell-based, HCT116, human colon tumor (AID 1045); assay type: functional;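 further: HCT116 colon tumor cells with beta catenin knocked out; cells exposed to compound for 60 hours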
[5] = growth suppression of PTEN-null colon cells, dose response, cell-based, HCT116 PTEN knockout (AID 1047); assay type: functional;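 further: HCT116 colon tumor cells with PTEN knocked out; cells exposed to compound for 60 hours before readout; potency for loss of cell viability measured by luminescence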
[6] = Luminescence Cell-Based Dose Retest to Confirm Inhibitors of Cancer Stem Cells. [Related pubchem assays (depositor defined):AID2717, AID2721]; assay type: functional; conditions: Homo sapiens
INS1 = assay: beta cell apoptosis inhibitors, cytokine rescue, dose response, luminescence, retest (AID 449756); assay type: functional, cell-based; conditions: Rattus norvegicus;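 further: cell death triggered by IL-1 beta plus TNF-alpha plus IFN-gamma mixture; protective hits raise ATP signal compared with cytokine alone wells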
[7] = CEM21 lymphoblast cell cytotoxicity, dose response, cytotoxicity control for viral fusion inhibitor project, CellTiter-Glo luminescence, cherry-picked (AID 652042); assay type: functional, cell-based;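 further: potency for signal decrease meaning cytotoxicity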
[8] = biological target: T1, Ubiquitin-conjugating enzyme E2 N (Homo sapiens, UniProt P61088); assay type: functional;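 further: Dose-response confirmation in a TR-FRET assay detecting UBC13-driven polyubiquitin chain formation, inhibition measured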
T1 sequence (P61088 whole entry): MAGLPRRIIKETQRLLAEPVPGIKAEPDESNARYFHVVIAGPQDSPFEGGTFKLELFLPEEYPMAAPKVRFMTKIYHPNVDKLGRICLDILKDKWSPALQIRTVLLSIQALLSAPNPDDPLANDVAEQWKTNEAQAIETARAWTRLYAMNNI

[9] = inhibitors of clade B AD8 Env fusion, dose response, cell-based, cherry-pick (AID 652062); assay type: functional;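 further: luciferase signal from cell-cell fusion driven by HIV-1 clade B AD8 Env; potency is for inhibitors of fusion seen as a drop in luminescence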
[10] = cytotoxicity toward NIH3T3 fibroblasts, dose response, counter-screen, cell-based, ATP luminescence, mouse fibroblasts (AID 2010); assay type: functional;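 further: cells exposed to compound for about 90 hours before reading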
[11] = inhibitors of HIV Env-driven cell fusion, dose response, cherry-pick (AID 652057); assay type: functional, cell-based
[12] = ZM109 Env clade C HIV-1 fusion inhibitors, dose response, HeLa effector, CEM target cells, luciferase, cherry-pick (AID 652058); assay type: functional, cell-based
[13] = off-target signal loss in HeLa-CEM21 co-culture – HeLa F-luc CTL cells, cherry-picked, counter-screen for HIV-1 Env fusion inhibitor project, dose response (AID 652040); assay type: functional, cell-based;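 further: potency for signal decrease marking cytotoxic or nonspecific inhibition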
[14] = inhibitors of intracellular T. cruzi replication, confirmation, NIH3T3 host cells, beta-gal luminescence (AID 2044); assay type: functional, cell-based;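 further: intracellular parasites grown in NIH/3T3 mouse fibroblasts as host cells; luminescent beta-galactosidase reporter signal from transgenic T. cruzi replicating inside host cells; inhibitors lower the luminescence signal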
[15] = T. cruzi growth inhibition in host cells, dose response, cell-based, plate reader, dry powder, set 2 (AID 652275); assay type: functional
[16] = Dose-response inhibition of insulin secretion in a rat insulinoma line at 5 mM glucose (AID 1117331); assay type: functional, cell-based; conditions: INS-1E
Cytochrome P450 1A2 = biological target: T2, Cytochrome P450 1A2 (Homo sapiens, UniProt P05177);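 further: PubChem cytochrome P450 panel assay, CYP1A2 panel member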
T2 sequence (P05177 whole entry): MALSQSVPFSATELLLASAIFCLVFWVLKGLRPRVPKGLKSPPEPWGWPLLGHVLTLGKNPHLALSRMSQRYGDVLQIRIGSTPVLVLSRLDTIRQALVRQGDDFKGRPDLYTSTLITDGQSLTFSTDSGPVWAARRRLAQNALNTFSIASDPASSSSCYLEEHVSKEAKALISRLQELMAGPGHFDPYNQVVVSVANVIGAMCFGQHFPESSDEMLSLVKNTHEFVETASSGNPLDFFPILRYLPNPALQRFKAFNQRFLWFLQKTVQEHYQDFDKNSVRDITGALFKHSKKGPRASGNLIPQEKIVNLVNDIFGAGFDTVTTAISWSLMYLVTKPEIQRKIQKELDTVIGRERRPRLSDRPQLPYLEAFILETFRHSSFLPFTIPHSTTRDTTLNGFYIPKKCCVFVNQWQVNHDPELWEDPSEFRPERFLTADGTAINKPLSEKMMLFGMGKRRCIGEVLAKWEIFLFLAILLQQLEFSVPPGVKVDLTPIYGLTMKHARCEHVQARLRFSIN

cells [17] = assay type: functional, cell-based; conditions: INS-1E
Cytochrome P450 2C19 = Cytochrome P450 2C19 (Homo sapiens, UniProt P33261); assay: Cytochrome panel assay with activity outcomes. Panel member name: p450-cyp2c19 Compounds with AC50 equal or less than 10 uM are considered active; assay type: functional; conditions: read-out: AC50
[18] = biological target: COUP transcription factor 2 (Homo sapiens, UniProt P24468); assay: Luminescence-based cell-based high throughput dose response assay to identify inhibitors of COUP-TFII (NR2F2).; assay type: functional;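 further: HEK293 cells transiently cotransfected with COUP-TFII expression vector and reporter; luciferase reporter luminescence driven by COUP-TFII from the pX2-168 reporter plasmid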
[19] = HepG2 cell cytotoxicity, dose response, cytotoxicity control, plate reader, dry powder samples (AID 1159569); assay type: functional, cell-based;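 further: inhibitor potency with signal falling toward the positive control level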
[20] = P. falciparum ATP4 D1247Y mutant growth inhibitors, dose response, NITD609-resistant line, SYBR Green, dry powder (AID 1159571); assay type: functional, cell-based;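 further: parasites synchronized at ring stage by sorbitol before testing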
[21] = P. falciparum Dd2 growth inhibitors, dose response, SYBR Green, dry powder samples (AID 1159566); assay type: functional, cell-based;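 further: potency for growth inhibition with lower SYBR green DNA signal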
[22] = P. falciparum 3D7-ScDHODH growth inhibitors, dose response, SYBR Green, dry powder samples (AID 1159570); assay type: functional, cell-based;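 further: parasite growth measured after 72 hours of compound exposure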
[23] = P. falciparum Dd2 growth inhibitors, dose response, SYBR Green, cherry-picked samples (AID 1159567); assay type: functional, cell-based
[24] = A549 cell cytotoxicity, dose response, CellTiter-Glo luminescence, dry powder, set 17 (AID 1117284); assay type: functional, cell-based
[25] = biological target: Endoplasmic reticulum aminopeptidase 1 (Homo sapiens, UniProt Q9NZ08); assay: ERAP1 aminopeptidase inhibitors, dose response, biochemical, cherry-pick, set 2, plate reader (AID 743314)
HEK293 [26] = assay: NOD2 signaling inhibitors in MDP-stimulated cells, cell-based, uHTS, luminescence (AID 2001); assay type: functional; conditions: Homo sapiens
[27] = control 3'UTR Renilla luciferase suppression, dose response, counter-screen for Shn3 inhibitor project, cell-based, Clone20-Shn3RL, cherry-picked (AID 624133); assay type: functional
cells [28] = assay: cells
HEK293 [29] = assay: NOD1 signaling inhibitors, primary screen, cell-based, luminescence, uHTS (AID 1578); assay type: functional; conditions: Homo sapiens
[30] = Shn3 3'UTR reporter inhibitors, dose response, cell-based, Clone20 osteoblasts, firefly luciferase, cherry-picked (AID 624132); assay type: functional;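 further: firefly luciferase luminescence from reporter carrying the Shn3 3'UTR in osteoblasts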
[31] = cytotoxicity in HEK-293T cells, dose response, cytotoxicity control for TCR NF-kB inhibitor project, luminescence, T-cell screen hits (AID 489026); assay type: functional, cell-based;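 further: cells exposed to compound about 14 hours before the viability readout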
HEK293 [32] = assay: cells; assay type: functional, cell-based; conditions: Homo sapiens
HEK293 [33] = assay: cells; assay type: functional, cell-based; conditions: Homo sapiens; remark: listed apart in the source
[34] = HepG2 cell cytotoxicity, dose response, cytotoxicity control for Shn3 inhibitor project, CellTiter-Glo, cherry-picked (AID 624134); assay type: functional, cell-based
[35] = biological target: Transitional endoplasmic reticulum ATPase (Homo sapiens, UniProt P55072, C522A); assay: Luminescence counterscreen assay for p97 inhibitors: dose response biochemical high throughput screening assay to identify inhibitors of the C522A mutant p97 ATPase: synthesized compounds. [Related pubchem assays: 1481, 1517, 1551 ]
[36] = biological target: Transitional endoplasmic reticulum ATPase (Homo sapiens, UniProt P55072); assay: Luminescence dose response biochemical high throughput screening assay for inhibitors of the p97 ATPase: synthesized compounds. [Related pubchem assays: 1481, 1517 ]
Bcl-2-like protein 10 = biological target: T3, Bcl-2-like protein 10 (Homo sapiens, UniProt Q9HD36); assay: Biochemical TR3 FP assay of Bcl-B inhibitor potency, EC50 (AID 1243); assay type: functional
T3 sequence (Q9HD36 whole entry): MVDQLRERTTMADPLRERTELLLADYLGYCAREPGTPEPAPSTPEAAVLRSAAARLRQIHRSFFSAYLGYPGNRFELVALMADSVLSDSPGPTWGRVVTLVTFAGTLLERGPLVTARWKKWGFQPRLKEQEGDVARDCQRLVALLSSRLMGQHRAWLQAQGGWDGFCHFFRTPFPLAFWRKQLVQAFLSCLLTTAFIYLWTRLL

Chain of COUP transcription factor 2 (P24468 whole entry): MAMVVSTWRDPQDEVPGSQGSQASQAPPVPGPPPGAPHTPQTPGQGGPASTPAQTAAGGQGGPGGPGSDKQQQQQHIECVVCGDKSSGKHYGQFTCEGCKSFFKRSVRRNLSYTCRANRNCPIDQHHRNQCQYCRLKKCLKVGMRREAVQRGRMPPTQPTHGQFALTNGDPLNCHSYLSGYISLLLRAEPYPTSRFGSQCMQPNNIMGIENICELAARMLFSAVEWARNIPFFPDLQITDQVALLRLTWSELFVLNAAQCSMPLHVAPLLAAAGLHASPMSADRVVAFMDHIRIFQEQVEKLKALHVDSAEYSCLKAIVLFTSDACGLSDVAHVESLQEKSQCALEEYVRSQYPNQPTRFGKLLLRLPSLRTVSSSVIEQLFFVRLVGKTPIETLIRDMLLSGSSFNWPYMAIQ
Chain of Cytochrome P450 2C19 (P33261 whole entry): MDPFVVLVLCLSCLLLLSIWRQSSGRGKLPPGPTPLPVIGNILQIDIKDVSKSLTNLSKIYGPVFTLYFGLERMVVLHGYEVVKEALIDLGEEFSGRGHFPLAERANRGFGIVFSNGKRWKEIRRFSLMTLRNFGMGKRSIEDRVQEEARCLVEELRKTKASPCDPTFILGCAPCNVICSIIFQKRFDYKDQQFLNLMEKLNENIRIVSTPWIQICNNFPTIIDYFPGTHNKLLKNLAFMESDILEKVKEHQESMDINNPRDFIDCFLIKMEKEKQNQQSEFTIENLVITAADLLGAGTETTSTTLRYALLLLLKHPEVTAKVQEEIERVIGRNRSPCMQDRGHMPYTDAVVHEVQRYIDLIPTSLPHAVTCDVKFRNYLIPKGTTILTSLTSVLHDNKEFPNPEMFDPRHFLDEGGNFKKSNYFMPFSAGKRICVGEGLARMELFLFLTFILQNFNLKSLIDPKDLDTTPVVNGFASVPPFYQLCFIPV
Chain of Endoplasmic reticulum aminopeptidase 1 (Q9NZ08 whole entry): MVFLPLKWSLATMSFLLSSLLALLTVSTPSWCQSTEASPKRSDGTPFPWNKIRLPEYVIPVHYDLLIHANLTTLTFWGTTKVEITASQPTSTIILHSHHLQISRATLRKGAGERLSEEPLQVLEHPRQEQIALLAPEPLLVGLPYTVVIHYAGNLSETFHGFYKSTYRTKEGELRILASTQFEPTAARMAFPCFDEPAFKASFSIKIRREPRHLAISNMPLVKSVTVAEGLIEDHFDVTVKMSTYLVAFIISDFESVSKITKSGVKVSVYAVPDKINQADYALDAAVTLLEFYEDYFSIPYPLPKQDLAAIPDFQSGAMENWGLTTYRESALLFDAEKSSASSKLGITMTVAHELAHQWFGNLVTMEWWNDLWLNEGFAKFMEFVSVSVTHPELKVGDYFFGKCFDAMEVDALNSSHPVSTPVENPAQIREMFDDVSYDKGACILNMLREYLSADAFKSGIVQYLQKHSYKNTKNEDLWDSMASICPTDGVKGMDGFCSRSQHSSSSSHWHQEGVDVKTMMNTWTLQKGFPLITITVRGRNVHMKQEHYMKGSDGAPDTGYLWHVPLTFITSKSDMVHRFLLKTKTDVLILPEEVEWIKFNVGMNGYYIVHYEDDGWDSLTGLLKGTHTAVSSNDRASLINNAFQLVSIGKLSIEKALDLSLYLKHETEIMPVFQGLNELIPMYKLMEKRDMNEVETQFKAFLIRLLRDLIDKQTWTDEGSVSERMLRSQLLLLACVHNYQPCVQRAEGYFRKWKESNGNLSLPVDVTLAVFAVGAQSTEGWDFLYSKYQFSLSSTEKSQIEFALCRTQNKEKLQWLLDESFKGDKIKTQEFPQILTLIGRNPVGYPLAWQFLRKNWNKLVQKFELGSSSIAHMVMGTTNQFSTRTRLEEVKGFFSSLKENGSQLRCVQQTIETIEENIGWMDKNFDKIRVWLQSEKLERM
Chain of Transitional endoplasmic reticulum ATPase (Homo sapiens, UniProt P55072, C522A) (P55072 2-806 C522A limits assumed): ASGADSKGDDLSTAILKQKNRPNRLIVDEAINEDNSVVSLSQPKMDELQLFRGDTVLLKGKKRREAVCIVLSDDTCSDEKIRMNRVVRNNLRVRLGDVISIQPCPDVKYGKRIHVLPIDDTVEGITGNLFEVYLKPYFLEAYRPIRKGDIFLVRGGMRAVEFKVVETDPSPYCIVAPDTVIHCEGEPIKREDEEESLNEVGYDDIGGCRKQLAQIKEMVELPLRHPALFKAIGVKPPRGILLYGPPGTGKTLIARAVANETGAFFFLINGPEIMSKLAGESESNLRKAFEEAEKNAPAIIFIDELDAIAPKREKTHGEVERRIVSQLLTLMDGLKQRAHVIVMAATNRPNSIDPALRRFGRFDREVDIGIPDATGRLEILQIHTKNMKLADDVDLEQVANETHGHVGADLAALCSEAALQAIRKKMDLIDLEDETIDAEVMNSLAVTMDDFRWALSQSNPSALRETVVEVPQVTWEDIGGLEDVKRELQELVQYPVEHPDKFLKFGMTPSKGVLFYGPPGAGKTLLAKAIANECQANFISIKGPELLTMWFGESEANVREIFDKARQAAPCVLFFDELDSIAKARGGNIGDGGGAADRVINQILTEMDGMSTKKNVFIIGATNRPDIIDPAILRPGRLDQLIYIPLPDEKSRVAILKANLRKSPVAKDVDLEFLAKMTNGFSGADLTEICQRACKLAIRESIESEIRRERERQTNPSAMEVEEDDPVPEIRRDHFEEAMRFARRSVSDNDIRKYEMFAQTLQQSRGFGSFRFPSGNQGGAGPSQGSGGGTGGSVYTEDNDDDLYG
Chain of Transitional endoplasmic reticulum ATPase (Homo sapiens, UniProt P55072) (P55072 whole entry): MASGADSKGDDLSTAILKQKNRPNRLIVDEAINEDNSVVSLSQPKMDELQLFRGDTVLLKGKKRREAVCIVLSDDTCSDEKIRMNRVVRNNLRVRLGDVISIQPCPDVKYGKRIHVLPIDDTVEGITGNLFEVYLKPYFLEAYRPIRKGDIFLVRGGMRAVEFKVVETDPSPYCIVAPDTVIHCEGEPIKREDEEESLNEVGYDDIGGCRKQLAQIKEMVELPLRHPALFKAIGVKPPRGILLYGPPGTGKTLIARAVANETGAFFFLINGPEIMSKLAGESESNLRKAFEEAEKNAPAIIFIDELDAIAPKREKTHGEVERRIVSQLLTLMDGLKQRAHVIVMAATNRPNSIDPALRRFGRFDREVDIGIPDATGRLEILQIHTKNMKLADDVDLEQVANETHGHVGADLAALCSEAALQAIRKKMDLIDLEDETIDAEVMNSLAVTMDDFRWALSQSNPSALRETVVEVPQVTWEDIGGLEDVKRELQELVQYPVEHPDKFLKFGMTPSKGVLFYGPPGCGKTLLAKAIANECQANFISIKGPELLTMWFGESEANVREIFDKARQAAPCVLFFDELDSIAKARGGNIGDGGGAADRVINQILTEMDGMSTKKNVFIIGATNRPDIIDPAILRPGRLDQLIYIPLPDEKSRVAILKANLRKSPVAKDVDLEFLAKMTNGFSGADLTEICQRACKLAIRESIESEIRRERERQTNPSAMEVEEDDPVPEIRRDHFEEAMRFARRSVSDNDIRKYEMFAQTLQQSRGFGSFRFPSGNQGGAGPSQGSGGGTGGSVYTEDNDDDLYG

With `Cc1oc(C(=O)Nc2ccc(O)cc2)cc1COc1ccccc1` the CC50 [1] was > 40 µM (active), the EC50 [2] was 16.6 µM (active) and the EC50 [3] was 13.9 µM (active).

With `Cc1ccc(Nc2cc(C)nc(NCc3ccccc3)n2)cc1` the EC50 [4] was 6.62 µM (active), the EC50 [5] was 7.18 µM (active) and the AC50 [6] was 6.3 µM (active). The AC50 (INS1) was 3.94 µM (active), the AC50 [7] was 17.2 µM (active) and the IC50 [8] was > 20 µM (inactive). For the same compound, the AC50 [9] was 7.54 µM (active), the EC50 [10] was > 60 µM (inconclusive) and the AC50 [11] was 4.04 µM (active). The AC50 [12] was 4.51 µM (active), the AC50 [13] was 4.77 µM (active) and the EC50 [14] was 0.255 µM (active).

In the case of `CN(C)C(=O)c1ccc(-c2ccc([C@H]3[C@H](CO)N4CCCCN(CC5CC5)C[C@@H]34)cc2)cc1`, the AC50 [15] was 2.74 µM (active).

For `N=C(N)NCCC[C@H](N)C(=O)O` [ARGININE], the IC50 [16] was > 33.3 µM (inactive), the AC50 (Cytochrome P450 1A2) was 31.6 µM (inconclusive) and the IC50 (cells [17]) was > 33.3 µM (inactive). The AC50 (Cytochrome P450 2C19) was 10 µM (inconclusive).

For `Cc1ccc(Cl)cc1S(=O)(=O)N1CCC(C(=O)NC2CCN(Cc3ccccc3)CC2)CC1`, the IC50 [18] was 12 µM (inactive).

With `CN(C)C(=O)c1ccc(-c2cccc(-c3nc(C(=O)NC4CCCC4)cc4c3[C@H](CCO)N([S@@+]([O-])C(C)(C)C)C4)c2)cc1` the AC50 [19] was 30.5 µM (active), the AC50 [20] was 1.03 µM (active) and the AC50 [21] was 0.768 µM (active). For the same compound, the AC50 [22] was 1.14 µM (active) and the AC50 [23] was 1.99 µM (active).

With `COc1ccccc1-c1ccc(CN(C)C[C@@H]2Oc3cc(C#C[C@@H](C)O)ccc3S(=O)(=O)N([C@@H](C)CO)C[C@@H]2C)cc1` the AC50 [24] was > 52 µM (inactive).

With `CCC(=O)N1[C@H](C(=O)OC)[C@@H](CO)[C@@H]2Cn3c(ccc(/C=C/c4ccccc4)c3=O)[C@@H]21` the AC50 [25] was 12.8 µM (active).

In the case of `COc1ccc(C2=Nn3c([n+](C)c4ccccc43)SC2)cc1`, the IC50 (HEK293 [26]) was 13 µM (inactive), the AC50 [27] was 3.2 µM (active) and the AC50 (INS1) was 1.54 µM (active). For the same compound, the EC50 [10] was > 60 µM (not active), the EC50 (cells [28]) was 0.087 µM (active) and the EC50 (HEK293 [29]) was 11.1 µM (active). The AC50 [30] was 1.16 µM (active), the IC50 [31] was > 80 µM (inactive) and the IC50 (HEK293 [32]) was > 20 µM (inactive). For the same compound, the IC50 [18] was 5.66 µM (active), the IC50 (HEK293 [33]) was 12.2 µM (active) and the EC50 [14] was < 0.1 µM (active). For the same compound, the AC50 [34] was > 70 µM (inactive).

For `CCOC(=O)/C(C#N)=C/c1ccc(F)cc1[N+](=O)[O-]`, the IC50 [35] was > 50 µM (not active) and the IC50 [36] was > 50 µM (not active).

With `COc1cc(N)ccc1-n1c(C)ccc1C` the EC50 (Bcl-2-like protein 10) was 32.9 µM (active).
